Experimental data from PubChem BioAssay AID330 (DTP/NCI, 2004).
Several values for one entry are separate records, joined by “and”; a condition that tells them apart may be missing. Equal values may be shown once. Toxic doses and inconclusive results are not listed.

Tested on: P388 leukemia ip, CD2F1 mice, survival T/C
Test: NCI In Vivo Anticancer Drug Screen. Data for tumor model P388 Leukemia (intraperitoneal) in CD2F1 (CDF1) mice
Conditions: endpoint: median survival time, higher = longer survival
Summary of the method: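 Mice carrying the transplanted tumor received test compound or vehicle. Survival was recorded in each group, and the value is the treated-group measurement divided by that of the vehicle-treated control group.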

[1] = dose: 50.0 mg/kg/injection, schedule: Q01DX009 (ip), vehicle: Klucel (hydroxypropylcellulose) (HPC)
[2] = dose: 100.0 mg/kg/injection, schedule: Q01DX009 (ip), vehicle: Klucel (hydroxypropylcellulose) (HPC)
[3] = dose: 200.0 mg/kg/injection, schedule: Q01DX009 (ip), vehicle: Klucel (hydroxypropylcellulose) (HPC)
[4] = dose: 0.05 mg/kg/injection, schedule: Q01DX009 (ip), vehicle: water
[5] = dose: 0.1 mg/kg/injection, schedule: Q01DX009 (ip), vehicle: water
[6] = dose: 0.2 mg/kg/injection, schedule: Q01DX009 (ip), vehicle: water
[7] = dose: 0.4 mg/kg/injection, schedule: Q01DX009 (ip), vehicle: water
[8] = dose: 100.0 mg/kg/injection, schedule: Q01DX009 (ip), vehicle: saline with Tween-80

CCn1c2ccccc2c2cc(N)c(N=Nc3cc(OC)c(N=Nc4ccc([N+](=O)[O-])cc4)cc3OC)cc21
T/C [1]: 104 % of control | T/C [2]: 105 % of control | T/C [3]: 112 % of control

CNC(=O)C(NC(=O)C(NC(=O)c1c2nc3c(C(=O)NC(C(=O)NC(C(=O)NC)C(C)C)C(C)O)ccc(C)c3oc-2c(C)c(=O)c1N)C(C)O)C(C)C (configuration not stated)
T/C [4]: 101 % of control | T/C [5]: 110 % of control | T/C [6]: 100 % of control | T/C [7]: 99 % of control | T/C (dose: 0.8 mg/kg/injection, schedule: Q01DX009 (ip), vehicle: water): 108 % of control | T/C (dose: 1.6 mg/kg/injection, schedule: Q01DX009 (ip), vehicle: water): 99 % of control and 90 % of control | T/C (dose: 3.2 mg/kg/injection, schedule: Q01DX009 (ip), vehicle: water): 97 % of control | T/C (dose: 6.4 mg/kg/injection, schedule: Q01DX009 (ip), vehicle: water): 97 % of control | T/C (dose: 12.8 mg/kg/injection, schedule: Q01DX009 (ip), vehicle: water): 99 % of control

C=C(Cl)C(=NC(C)(C)C)Nc1cccc(Cl)c1
T/C (dose: 6.25 mg/kg/injection, schedule: Q01DX005 (ip), vehicle: Klucel (hydroxypropylcellulose) (HPC)): 112 % of control | T/C (dose: 12.5 mg/kg/injection, schedule: Q01DX005 (ip), vehicle: Klucel (hydroxypropylcellulose) (HPC)): 114 % of control | T/C (dose: 25.0 mg/kg/injection, schedule: Q01DX005 (ip), vehicle: Klucel (hydroxypropylcellulose) (HPC)): 112 % of control | T/C (dose: 50.0 mg/kg/injection, schedule: Q01DX005 (ip), vehicle: Klucel (hydroxypropylcellulose) (HPC)): 105 % of control | T/C (dose: 100.0 mg/kg/injection, schedule: Q01DX005 (ip), vehicle: Klucel (hydroxypropylcellulose) (HPC)): 115 % of control | T/C (dose: 200.0 mg/kg/injection, schedule: Q01DX005 (ip), vehicle: Klucel (hydroxypropylcellulose) (HPC)): 118 % of control

CC(=O)N1c2ccccc2Sc2ccc3ccc(C(=O)CCl)cc3c21
T/C [8]: 115 % of control

O=S(=O)(O)O.[NH2-].[NH2-].[Pt+2]
T/C (dose: 1.56 mg/kg/injection, schedule: Q04DX002 (ip), vehicle: saline with Tween-80): 112 % of control | T/C (dose: 6.25 mg/kg/injection, schedule: Q04DX002 (ip), vehicle: saline with Tween-80): 162 % of control | T/C (dose: 12.5 mg/kg/injection, schedule: Q04DX002 (ip), vehicle: saline with Tween-80): 156 % of control

CC1(C)OC2OC(C3CSC(=S=O)S3)C(O)C2O1 (configuration not stated)
T/C (dose: 12.5 mg/kg/injection, schedule: Q01DX005 (ip), vehicle: Klucel + Tween-80): 95 % of control | T/C (dose: 25.0 mg/kg/injection, schedule: Q01DX005 (ip), vehicle: Klucel + Tween-80): 100 % of control | T/C (dose: 50.0 mg/kg/injection, schedule: Q01DX005 (ip), vehicle: Klucel + Tween-80): 103 % of control

CCC(=O)NCC(CN(C)C)(c1ccccc1)c1ccccc1
T/C (dose: 100.0 mg/kg/injection, schedule: Q01DX001 (ip), vehicle: saline with Tween-80): 112 % of control | T/C (dose: 200.0 mg/kg/injection, schedule: Q01DX001 (ip), vehicle: saline with Tween-80): 100 % of control

NC(=O)c1ccc[n+](Cc2ccccc2)c1
T/C (dose: 12.5 mg/kg/injection, schedule: Q01DX009 (ip), vehicle: Klucel (hydroxypropylcellulose) (HPC)): 110 % of control | T/C (dose: 25.0 mg/kg/injection, schedule: Q01DX009 (ip), vehicle: Klucel (hydroxypropylcellulose) (HPC)): 91 % of control | T/C [1]: 112 % of control | T/C [2]: 93 % of control

CN1CCc2cc3c(c4c2C1C(O)c1ccccc1-4)OCO3 (configuration not stated)
T/C (dose: 0.12 mg/kg/injection, schedule: Q01DX009 (ip), vehicle: acid diluted with saline): 109 % of control | T/C (dose: 0.25 mg/kg/injection, schedule: Q01DX009 (ip), vehicle: acid diluted with saline): 97 % of control | T/C (dose: 2.0 mg/kg/injection, schedule: Q01DX009 (ip), vehicle: acid diluted with saline): 92 % of control | T/C (dose: 4.0 mg/kg/injection, schedule: Q01DX009 (ip), vehicle: acid diluted with saline): 108 % of control

CC1OC(OC2CC(O)(C(=O)CO)Cc3c(O)c4c(c(O)c32)C(=O)c2ccccc2C4=O)CC(N)C1O (configuration not stated)
T/C [4]: 159 % of control | T/C [5]: 185 % of control and 216 % of control | T/C [6]: 221 % of control and 261 % of control | T/C (dose: 0.21 mg/kg/injection, schedule: Q04DX003 (ip), vehicle: water): 172 % of control | T/C (dose: 0.25 mg/kg/injection, schedule: Q04DX003 (ip), vehicle: water): 101 % of control and 122 % of control | T/C (dose: 0.36 mg/kg/injection, schedule: Q04DX003 (ip), vehicle: water): 209 % of control | T/C (dose: 0.39 mg/kg/injection, schedule: Q01DX009 (ip), vehicle: water): 115 % of control | T/C [7]: 115 % of control | T/C (dose: 0.5 mg/kg/injection, schedule: Q04DX003 (ip), vehicle: water): 157 % of control | T/C (dose: 0.6 mg/kg/injection, schedule: Q04DX003 (ip), vehicle: water): 239 % of control | T/C (dose: 0.78 mg/kg/injection, schedule: Q01DX009 (ip), vehicle: water): 86 % of control | T/C (dose: 1.0 mg/kg/injection, schedule: Q04DX003 (ip), vehicle: water): 167 % of control and 183 % of control | T/C (dose: 1.3 mg/kg/injection, schedule: Q01DX001 (ip), vehicle: water): 216 % of control | T/C (dose: 2.4 mg/kg/injection, schedule: Q01DX001 (ip), vehicle: water): 104 % of control | T/C (dose: 3.2 mg/kg/injection, schedule: Q01DX001 (ip), vehicle: water): 97 % of control | T/C (dose: 4.0 mg/kg/injection, schedule: Q04DX003 (ip), vehicle: water): 104 % of control

BrC1CCC(OCc2ccccc2)C(OCc2ccccc2)C1 (configuration not stated)
T/C [1]: 100 % of control | T/C [2]: 98 % of control | T/C [3]: 97 % of control

Nc1nc(N)c2nn(C3OC(CO)C(O)C3O)nc2n1 (configuration not stated)
T/C (dose: 25.0 mg/kg/injection, schedule: Q01DX001 (ip), vehicle: saline): 103 % of control | T/C (dose: 50.0 mg/kg/injection, schedule: Q01DX001 (ip), vehicle: saline): 94 % of control | T/C (dose: 100.0 mg/kg/injection, schedule: Q01DX001 (ip), vehicle: saline): 105 % of control | T/C (dose: 200.0 mg/kg/injection, schedule: Q01DX001 (ip), vehicle: saline): 100 % of control | T/C (dose: 400.0 mg/kg/injection, schedule: Q01DX001 (ip), vehicle: saline): 100 % of control

CNc1n[nH]c(-c2ccccc2)n1
T/C [1]: 101 % of control | T/C [2]: 102 % of control | T/C [3]: 102 % of control

CCc1nc(NCCCCCCCCNc2nc(C)c(-c3ccccc3O)c(CC)n2)nc(C)c1-c1ccccc1O
T/C (dose: 100.0 mg/kg/injection, schedule: Q04DX003 (ip), vehicle: saline): 93 % of control | T/C (dose: 200.0 mg/kg/injection, schedule: Q04DX003 (ip), vehicle: saline): 94 % of control | T/C (dose: 400.0 mg/kg/injection, schedule: Q04DX003 (ip), vehicle: saline): 86 % of control

O=C(O)c1cc(-c2ccccc2Cl)nc2cc3ccccc3cc12
T/C [1]: 111 % of control | T/C [2]: 101 % of control | T/C [3]: 101 % of control

Nc1ccc2nc3c(N)ccc(N)c3nc2c1
T/C (dose: 3.75 mg/kg/injection, schedule: Q01DX005 (ip), vehicle: saline): 100 % of control and 103 % of control | T/C (dose: 7.5 mg/kg/injection, schedule: Q01DX005 (ip), vehicle: saline): 100 % of control and 105 % of control | T/C (dose: 15.0 mg/kg/injection, schedule: Q01DX005 (ip), vehicle: saline): 100 % of control and 109 % of control | T/C (dose: 30.0 mg/kg/injection, schedule: Q01DX005 (ip), vehicle: saline): 111 % of control and 116 % of control | T/C (dose: 60.0 mg/kg/injection, schedule: Q01DX005 (ip), vehicle: saline): 116 % of control | T/C (dose: 120.0 mg/kg/injection, schedule: Q01DX005 (ip), vehicle: saline): 118 % of control

CCCCCCCCCC[N+](C)([O-])CCCCCC[N+](C)([O-])CCCCCCCCCC (configuration not stated)
T/C (dose: 50.0 mg/kg/injection, schedule: Q04DX003 (ip), vehicle: saline with Tween-80): 102 % of control | T/C (dose: 100.0 mg/kg/injection, schedule: Q04DX003 (ip), vehicle: saline with Tween-80): 99 % of control

CCN1C(=O)C(N2CCCCC2)S/C1=C\C(=O)O (configuration not stated)
T/C [1]: 97 % of control | T/C [2]: 110 % of control | T/C [3]: 107 % of control

CCCCCOC(=O)CC(N)C(=O)OCCCCC (configuration not stated)
T/C (dose: 50.0 mg/kg/injection, schedule: Q01DX009 (ip), vehicle: saline with Tween-80): 100 % of control | T/C [8]: 100 % of control | T/C (dose: 200.0 mg/kg/injection, schedule: Q01DX009 (ip), vehicle: saline with Tween-80): 90 % of control
